In brackets after ≈: the same amount, converted by molar mass.
Key:
[1] = system: WT clinical isolates; test: MIC broth microdilution, WT; type: cell-based; details: read-out: MIC WT, clinical isolates, IMM Univ. Zurich; wild type
In short: (§1)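 MICs obtained by broth microdilution following CLSI M07-A10, tested against clinical isolates from the Institute of Medical Microbiology, Univ. Zurich; values in μg/ml.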

[2] = system: clinical isolates carrying AAC(3)-IV; test: MIC broth microdilution, AAC(3)-IV; type: cell-based; details: clinical isolates, IMM Univ. Zurich; AAC(3)-IV; read-out: MIC AAC(3)-IV
In short: as §1

[3] = system: isolates carrying apmA; test: MIC broth microdilution, apmA; type: cell-based; details: apmA resistance gene
In short: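 MICs (μg/ml) were determined by CLSI M07-A10 broth microdilution against apmA-carrying clinical isolates from the Institute of Medical Microbiology, University of Zurich.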

[4] = system: bacterial ribosomes; test: in-vitro translation assay, bacterial ribosomes; type: biochemical
In short: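 Inhibitory potency was determined as IC50 in in-vitro translation systems based on bacterial ribosomes, human chimeric (mitochondrial-type) ribosomes or rabbit reticulocyte (cytosolic) ribosomes.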

[5] = system: human mitochondrial ribosomes; test: in-vitro translation assay, human mitochondrial (human chimeric) ribosomes; type: biochemical
In short: (§2)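 Each ribosome preparation (bacterial, human chimeric as the mitochondrial model, rabbit reticulocyte as the cytosolic model) drives in-vitro translation with the test compound present. Inhibition of translation gives the IC50.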

[6] = system: human cytosolic ribosomes; test: in-vitro translation assay, human cytosolic ribosomes; type: biochemical
In short: as §2

[7] = system: AG212, Escherichia coli ATCC25922; test: MIC reference strain AG212; type: cell-based; details: Escherichia coli; reference strain ATCC25922; read-out: MIC AG212 E. coli
In short: (§3)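 MICs by broth microdilution following CLSI M07-A10.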

[8] = system: AG215, Klebsiella pneumonia; test: MIC reference strain AG215; type: cell-based; details: Klebsiella pneumoniae, reference strain; read-out: MIC AG215 K. pneumonia
In short: as §3

[9] = system: AG290, Enterobacter cloacae; test: MIC reference strain AG290; type: cell-based; details: Enterobacter cloacae; reference strain; read-out: MIC AG290 E. cloacae
In short: as §3

[10] = system: AG220, Pseudomonas aeruginosa ATCC27853; test: MIC reference strain AG220; type: cell-based; details: Pseudomonas aeruginosa, ATCC27853, reference strain ATCC27853; read-out: MIC AG220 P. aeruginosa
In short: as §3

[11] = system: AG225, Acinetobacter baumannii pittii; test: MIC reference strain AG225; type: cell-based; details: Acinetobacter baumannii, reference strain; read-out: MIC AG225 A. baumannii
In short: as §3

[12] = system: ATCC19977 M. abcessus; test: MIC reference strain ATCC19977; type: cell-based; details: read-out: MIC ATCC19977 M. abcessus
In short: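 Values are minimal inhibitory concentrations, obtained by serial dilution of compound in broth according to CLSI guidance for aerobes.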

[13] = system: AG001 E. coli WT; test: Antibacterial activity, clinical isolate AG001; type: cell-based; set-up: unit not given here
In short: (§4)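 MICs determined by broth microdilution following CLSI M07-A10 (2015) against clinical isolates.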

[14] = system: AG055 E. coli WT; test: Antibacterial activity, clinical isolate AG055; type: cell-based; set-up: unit not given here
In short: as §4

[15] = system: AG003 E. coli AAC(3)-II; test: Antibacterial activity, clinical isolate AG003; type: cell-based
In short: as §4

[16] = system: AG173 E. coli AAC(3)-IV; test: Antibacterial activity, clinical isolate AG173; type: cell-based
In short: as §4

[17] = system: AG163 E. coli APH(3′)-I; test: Antibacterial activity, clinical isolate AG163; type: cell-based
In short: as §4

[18] = system: AG038 MRSA; test: Antibacterial activity, clinical isolate AG038; type: cell-based; set-up: unit not given here
In short: as §4

[19] = system: AG039 MRSA AAC(6′)-I ANT(4′)-I; test: Antibacterial activity, clinical isolate AG039; type: cell-based
In short: as §4

[20] = system: AG042 MRSA AAC(6′)-I ANT(4′)-I APH(2′); test: Antibacterial activity, clinical isolate AG042; type: cell-based; set-up: unit not given here
In short: as §4

[21] = system: AG031 P. aer. APH(3′)-II; test: Antibacterial activity, clinical isolate AG031; type: cell-based; set-up: unit not given here
In short: as §4

[22] = system: AG032 P. aer. APH(3′)-II; test: Antibacterial activity, clinical isolate AG032; type: cell-based; set-up: unit not given here
In short: as §4

[23] = system: AG033 P. aer. APH(3′)-II AAC(6′)-I; test: Antibacterial activity, clinical isolate AG033; type: cell-based; set-up: unit not given here
In short: as §4

[24] = system: Engineered E. coli pH430 WT; test: Activity, engineered E. coli pH430 WT; type: cell-based; details: wild type
In short: (§5)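 Read-out is the minimal inhibitory concentration, obtained in broth microdilution run according to CLSI guidelines (M07-A10).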

[25] = system: Engineered E. coli AG103 armA; test: Activity against G1405-methylated 16S-rRNA, E. coli AG103 armA; type: cell-based
In short: as §5

[26] = system: Engineered E. coli pH424 armA; test: Activity against G1405-methylated 16S-rRNA, E. coli pH424 armA; type: cell-based
In short: as §5

[27] = system: Engineered E. coli pH425 rmtB; test: Activity against G1405-methylated 16S-rRNA, E. coli pH425 rmtB; type: cell-based
In short: as §5

[28] = system: Engineered E. coli pH426 rmtC; test: Activity against G1405-methylated 16S-rRNA, E. coli pH426 rmtC; type: cell-based
In short: as §5

[29] = system: Engineered E. coli pH427 rmtF; test: Activity against G1405-methylated 16S-rRNA, E. coli pH427 rmtF; type: cell-based
In short: as §5

[30] = system: eukaryotic ribosomes; test: in-vitro translation assays, bacterial versus eukaryotic ribosomes; type: biochemical
Source text: IC50 values for bacterial, human chimeric, and rabbit reticulocyte ribosomes have been determined by in-vitro translation assays as described previously (Proc. Nat. Ac. Sci USA 2012, 109(27):10984-10989).

[31] = system: clinical isolates carrying APH(3′)-I; test: MIC broth microdilution, APH(3′)-I; type: cell-based; details: IMM Univ. Zurich
[32] = system: clinical isolates carrying APH(3′)-II; test: MIC broth microdilution, APH(3′)-II; type: cell-based; details: clinical isolates, IMM Univ. Zurich; APH(3′)-II; read-out: MIC APH(3′)-II
[33] = system: clinical isolates carrying APH(3′)-III; test: MIC broth microdilution, APH(3′)-III; type: cell-based; details: IMM Univ. Zurich
[34] = system: clinical isolates carrying APH(3′)-VI; test: MIC broth microdilution, APH(3′)-VI; type: cell-based; details: IMM Univ. Zurich
[35] = system: APH(3′, 5″) resistance determinant; test: Susceptibility to the APH(3′, 5″) resistance determinant; type: cell-based
Source text: Minimal inhibitory concentrations (MIC) have been determined by broth microdilution assays (CLSI. Methods for Dilution Antimicrobial Susceptibility Tests for Bacteria That Grow Aerobically; Approved Standard—Tenth Edition. CLSI document M07-A10. Wayne, Pa.: Clinical and Laboratory Standards Institute; 2015.).
The introduction of a formamido group results in compounds that display increased selectivity for the bacterial ribosome over the mitochondrial (wild type and A1555G mutant) ribosomes, predictive of reduced ototoxicity.

Row | SMILES | MIC [2] | IC50 [4] | IC50 [5] | IC50 [6] | MIC [7] | MIC [8] | MIC [9] | MIC [10] | MIC [11] | MIC [12] | Antibacterial activity AG001 E. coli WT [13] | Antibacterial activity AG055 E. coli WT [14] | Antibacterial activity AG003 E. coli AAC(3)-II [15] | Antibacterial activity AG173 E. coli AAC(3)-IV [16] | Antibacterial activity AG163 E. coli APH(3′)-I [17] | Antibacterial activity AG038 MRSA [18] | Antibacterial activity AG039 MRSA AAC(6′)-I ANT(4′)-I [19] | Antibacterial activity AG042 MRSA AAC(6′)-I ANT(4′)-I APH(2′) [20] | Antibacterial activity AG031 P. aer. APH(3′)-II [21] | Antibacterial activity AG032 P. aer. APH(3′)-II [22] | other results
1 | CNC1C(OC2OC(CO)C(N)C(O)C2O)OC2CC(N)C(OC3C(N)CC(N)C(OCCO)C3O)OC2C1O (centres unmarked) [DC167, 6-O-(2-Hydroxyethyl)-apramycin] | > 32 µg/mL | 0.18 µM | 379 µM | 382 µM | 16 µg/mL | 4 µg/mL | 8 µg/mL | 32 µg/mL | 16 µg/mL | 2 µg/mL (≈ 3.43 µM) | 16 | 16 | 16 | >128 | 8-16 | 16-32 | 16-32 | 64 | 32-64 | 32-64 | MIC [1]: 8 µg/mL (≈ 13.7 µM); MIC [3]: > 64 µg/mL; Antibacterial activity AG033 P. aer. APH(3′)-II AAC(6′)-I [23]: 64-128; Activity E. coli pH430 WT [24]: 8; Activity E. coli AG103 armA [25]: 4; Activity E. coli pH424 armA [26]: 8; Activity E. coli pH425 rmtB [27]: 16; Activity E. coli pH426 rmtC [28]: 16; Activity E. coli pH427 rmtF [29]: 16; target specificity for bacterial versus human rRNA [30]: increased target specificity
2 | CNC1C(OC2OC(CO)C(N)C(O)C2O)OC2CC(N)C(OC3C(N)CC(N)C(O)C3OC3OC(CNC=O)C(OCCN)C3O)OC2C1O [DC186, 5-β-[3-O-(2-Aminoethyl)-5-deoxy-5-formamido-D-ribofuranosyl] apramycin] | > 32 µg/mL | 0.06 µM | 69 µM | 105 µM | 2 to 4 µg/mL | 1 µg/mL | 1 to 2 µg/mL | 16 to 32 µg/mL | 8 µg/mL | 8 µg/mL (≈ 10.8 µM) | 2 | 4 | 2 | 32 | 2 | 4 | 4-8 | 4-8 | 16 | 32 | MIC [31]: 2 µg/mL (≈ 2.7 µM); MIC [32]: 2 µg/mL (≈ 2.7 µM); MIC [33]: 0.25 µg/mL (≈ 0.337 µM); MIC [34]: 2 µg/mL (≈ 2.7 µM); Antibacterial activity AG033 P. aer. APH(3′)-II AAC(6′)-I [23]: 64; Activity E. coli pH430 WT [24]: 2; Activity E. coli AG103 armA [25]: 0.5-1; Activity E. coli pH424 armA [26]: 2; Activity E. coli pH425 rmtB [27]: 2; Activity E. coli pH426 rmtC [28]: 4; Activity E. coli pH427 rmtF [29]: 2; susceptibility to the APH(3′, 5″) resistance determinant [35]: circumvent this problem

Reference: US11485751B2, “Apramycin derivatives” (WAYNE STATE UNIVERSITY, priority 2017, dated 2022)
